In patent US20230310376A1, “PROPHYLACTIC AND/OR THERAPEUTIC AGENT FOR IDIOPATHIC PULMONARY FIBROSIS” (ONO PHARMACEUTICAL CO., LTD., priority 2020, published 2023):
Entries after “also recorded” stand apart in the source; their conditions may differ.

Columns and labels:
[1] = system: bleomycin-induced pulmonary fibrosis models produced using LPA3 receptor-deficient C57BL/6N mice; experiment: Bleomycin-induced pulmonary fibrosis model, LPA3 receptor-deficient C57BL/6N mice; type: in vivo, mouse; conditions: transpulmonary bleomycin, 3 mg/kg oral two times/day to day 21, vs medium-administered group
Experimental: (§1) Wild-type and LPA3 receptor-deficient male C57BL/6N mice (Oriental BioService, Inc., the week age at the start of the experiment: 13-week old) were used. Bleomycin hydrochloride (Nippon Kayaku Co., Ltd.) was dissolved in physiological saline (Otsuka Pharmaceutical Factory, Inc.) to prepare a 0.41-mg/mL solution. The bleomycin solution thus prepared was administered to each of the mice at a dosage volume of 75 μL through a transpulmonary route. For a normal group, physiological saline was administered at a dosage volume of 75 μL through a transpulmonary route.
(§2) On the day of first administration of bleomycin, the body weights were measured, and the mice were divided into groups equally in such a manner that a significant difference was not observed in the average values of the body weights among the groups. After the grouping, the administration of a test substance or the medium started, and the administration was performed repeatedly through an oral route at a frequency of two times/day from the day of the first administration of bleomycin to day 21. The volume of a solution to be administered was calculated on the basis of the body weight of each of the mice.
On the next day of the day of the final administration, each of the animals was subjected to the opening of the abdominal cavity under the anesthesia with a three types of mixed anesthetic agent (the intraperitoneal administration of 0.3 mg/10 mL/kg of medetomidine, 4 mg/10 mL/kg of midazolam, and 5 mg/10 mL/kg of butorphanol), and then the abdomen aorta in each of the animals was dissected to bleed to death. After the bleeding to death, the lung was excised, and the lung wet weight was measured. Subsequently, the lung was frozen. The frozen lung was homogenized, and then 11.2-N hydrochloric acid (200 μL) was added to a homogenate solution to hydrolyze the homogenate solution at about 120° C. for 34 hours. The content of hydroxyproline in the solution after the hydrolysis was measured using a hydroxyproline quantification kit (BioVision, Inc.).

human LPA1 receptor = human LPA1 receptor (Homo sapiens, UniProt Q92633); experiment: LPA1 agonistic activity measurement in receptor-expressing cell strain; type: cell-based; conditions: cell strain stably expressing human LPA1 receptor
[2] = system: bleomycin-induced pulmonary fibrosis models produced using male ICR mice; experiment: Bleomycin-induced pulmonary fibrosis model, male ICR mice; type: in vivo, mouse; conditions: bleomycin i.v. 5 days, 0.3, 1, 3 mg/kg oral two times/day to day 28, vs medium-administered group
Experimental: Male ICR mice (Charles River Laboratories Japan, Inc., the week age at the start of experiment: 12-week old) were used. Bleomycin hydrochloride (Nippon Kayaku Co., Ltd.) was dissolved in physiological saline (Otsuka Pharmaceutical Factory, Inc.) to prepare a 3-mg/mL solution. The bleomycin solution thus prepared was administered into a tail vein of each of the mice at a dosage volume of 5 mL/kg at a frequency of 1 time/day for 5 days. For a normal group, physiological saline was administered into a tail vein at a dosage volume of 5 mL/kg at a frequency of 1 time/day for 5 days.
as §2, with “through” for “through an”, “28.” for “21.”
On the next day of the day of the final administration, each of the animals was subjected to the opening of the abdominal cavity under the anesthesia with 2% isoflurane, and then the abdomen aorta in each of the mice was dissected to bleed to death. After the bleeding to death, the right lung was excised, and the lung wet weight was measured. Subsequently, the tissues of the right lung were dried with a dry-heat sterilizer, and the dry weight of the right lung was measured. […] The weight of the product after the neutralization was measured to calculate the amount (g) of the sample after the neutralization. […]
A chloramine T reagent (1 mL) was added to an HYP standard solution (2 mL), the resultant mixture was left to stand for 20 minutes at room temperature, then a perchloric acid reagent (1 mL) was added to the solution, and then the resultant mixture was left to stand for 5 minutes at room temperature. A p-dimethylaminobenzaldehyde reagent (1 mL) was added to the solution, then the resultant mixture was warmed to 60° C. for 20 minutes, and then the absorbance of a supernatant produced by the filtration of the mixture through a filter was measured at 557 nm with a spectrophotometer to produce a standard curve.
With respect to each of the HYP content measurement samples (2 mL), the measurement of the absorbance was performed in the same manner as mentioned above, and then the HYP content (μg/mL) was calculated on the basis of the standard curve. […] The HYP amount in the right lung (μg/Lung) was calculated in accordance with the following equation. […]

LPA2 receptor = LPA2 receptor (Homo sapiens, UniProt Q9HBW0); experiment: LPA2 agonistic activity measurement in receptor-expressing cell strain; type: cell-based; conditions: cell strain stably expressing LPA2 receptor
[3] = system: bleomycin-induced pulmonary fibrosis model, wild-type male C57BL/6N mice; experiment: Bleomycin-induced pulmonary fibrosis model, wild-type C57BL/6N mice; type: in vivo, mouse; conditions: transpulmonary bleomycin, 3 mg/kg oral two times/day to day 21, vs medium-administered group
Experimental: as §1
as §2, with “mice. […]” for “mice.”

Sequence of LPA2 receptor (Q9HBW0 whole entry): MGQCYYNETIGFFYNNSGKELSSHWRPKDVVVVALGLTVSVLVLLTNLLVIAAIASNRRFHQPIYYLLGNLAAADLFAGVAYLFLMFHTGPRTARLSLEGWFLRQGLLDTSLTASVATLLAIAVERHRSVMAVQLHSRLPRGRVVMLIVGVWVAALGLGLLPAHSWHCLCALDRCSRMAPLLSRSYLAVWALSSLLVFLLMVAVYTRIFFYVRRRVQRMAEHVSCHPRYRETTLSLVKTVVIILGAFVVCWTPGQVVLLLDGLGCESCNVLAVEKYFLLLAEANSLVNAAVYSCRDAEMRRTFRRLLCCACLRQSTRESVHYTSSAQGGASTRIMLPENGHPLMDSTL
Sequence of human LPA1 receptor (Q92633 whole entry): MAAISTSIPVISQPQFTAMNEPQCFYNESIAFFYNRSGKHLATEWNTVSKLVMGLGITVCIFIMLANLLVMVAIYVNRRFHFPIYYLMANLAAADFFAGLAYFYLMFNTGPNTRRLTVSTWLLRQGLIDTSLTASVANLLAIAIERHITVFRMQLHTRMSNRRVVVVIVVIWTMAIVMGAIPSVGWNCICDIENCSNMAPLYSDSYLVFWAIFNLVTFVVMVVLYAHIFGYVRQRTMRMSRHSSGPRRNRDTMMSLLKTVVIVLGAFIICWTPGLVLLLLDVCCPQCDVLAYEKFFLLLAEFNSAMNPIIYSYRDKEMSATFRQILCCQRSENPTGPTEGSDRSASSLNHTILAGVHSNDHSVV

Cc1ccc(Cn2c(C(=O)O)c(CNC3CCC3)c3ccccc32)cc1 [Compound I, 3-[(Cyclobutylamino)methyl]-1-(4-methylbenzyl)-1H-indol-2-carboxylic acid]
lung weight ([1]; FIG. 3, 3 mg/kg): does not prevent the increase in the weight of the lung | lung weight ([1]; FIG. 3, listed as Example 1, 3 mg/kg): did not show significant difference compared with those in the medium-administered group | HYP amount in the lung ([1]; FIG. 4, 3 mg/kg): does not prevent the increase in the amount of hydroxyproline | HYP amount in the lung ([1]; FIG. 4, listed as Example 1, 3 mg/kg): did not show significant difference compared with those in the medium-administered group | EC50 (human LPA1 receptor): > 10 µM | weight of the right lung ([2]; FIG. 1): significantly prevented the increase; also recorded: prevents the increase in the weight of the lung | weight of the right lung ([2]; FIG. 1, listed as Example 1): lower compared with those in the medium-administered group | HYP (hydroxyproline) amount in the right lung ([2]; FIG. 2): significantly prevented the increase; also recorded: prevents the increase in the amount of hydroxyproline | HYP (hydroxyproline) amount in the right lung ([2]; FIG. 2, listed as Example 1): lower compared with those in the medium-administered group | EC50 (LPA2 receptor): > 10 µM | lung weight ([3]; FIG. 3): smaller compared with those in the medium-administered group | HYP amount in the lung ([3]; FIG. 4): smaller compared with those in the medium-administered group
